Tests used:
KRAS G12V = KRAS G12V (Homo sapiens, UniProt P01116, G12V); test: GDP-GTP exchange assay (bodipy-GDP/GppNHp, SOS1), KRAS G12V; type: biochemical; details: 2.5 nM bodipy-loaded KRAS G12V, 3 h incubation after adding GppNHp-SOS1; for certain compounds the most potent isomer is quoted; read-out: KRAS_G12V exchange assay IC50
Method: (§1) The inhibitor potency of the exemplified compounds was determined in a fluorescence based guanine nucleotide exchange assay, which measures the exchange of bodipy-GDP (fluorescently labeled GDP) for GppNHp (Non-hydrolyzable GTP analog) to generate the active state of KRAS in the presence of SOS1 (guanine nucleotide exchange factor). Inhibitors were serially diluted in DMSO and a volume of 0.1 μL was transferred to the wells of a black low volume 384-well plate. 5 µL/well volume of bodipy-loaded KRAS G12D diluted to 2.5 nM in assay buffer (25 mM Hepes pH 7.5, 50 mM NaCl, 10 mM MgCl2 and 0.01% Brij-35) was added to the plate and pre-incubated with inhibitor for 4 h at r.t. Appropriate controls (enzyme with no inhibitor or with a G12D inhibitor) were included on the plate. The exchange was initiated by the addition of a 5 μL/well volume containing 1 mM GppNHp and 300 nM SOS1 in assay buffer. The 10 μL/well reaction concentration of the bodipy-loaded KRAS G12D, GppNHp, and SOS1 were 2.5 nM, 500 μM, and 150 nM, respectively. The reaction plates were incubated at r.t. for 2 h, a time estimated for complete GDP-GTP exchange in the absence of inhibitor. For the KRAS G12V mutant, similar guanine nucleotide exchange assays were used with 2.5 nM as final concentration for the bodipy loaded KRAS proteins and 3 h incubation after adding GppNHp-SOS1 mixture. A cyclic peptide described to selectively bind G12D mutant (Sakamoto et al., BBRC 484.3 (2017), 605-611) or internal compounds with confirmed binding were used as positive controls in the assay plates. Fluorescence intensities were measured on a PheraStar plate reader instrument (BMG Labtech) with excitation at 485 nm and emission at 520 nm.
(§2) Either GraphPad prism or Genedata Screener SmartFit was used to analyze the data. The IC50 values were derived by fitting the data to a four parameter logistic equation producing a sigmoidal dose-response curve with a variable Hill coefficient.
(§3) The symbol “†” indicates IC50≤100 nM, “††” indicates IC50>100 nM but ≤1 μM; and “†††” indicates IC50 is >1 μM but ≤5 μM, “††††” indicates IC50 is >5 µM but ≤10 μM. “NA” indicates IC50 not available.

KRAS G12D = KRAS G12D (Homo sapiens, UniProt P01116, G12D); test: GDP-GTP exchange assay (bodipy-GDP/GppNHp, SOS1), KRAS G12D; type: biochemical; details: 2.5 nM bodipy-loaded KRAS G12D, 4 h pre-incubation, 2 h reaction with GppNHp and SOS1; for certain compounds the most potent isomer is quoted; read-out: KRAS_G12D exchange assay IC50
Sequence of KRAS G12D (P01116 1-188 isoform P01116-2 G12D): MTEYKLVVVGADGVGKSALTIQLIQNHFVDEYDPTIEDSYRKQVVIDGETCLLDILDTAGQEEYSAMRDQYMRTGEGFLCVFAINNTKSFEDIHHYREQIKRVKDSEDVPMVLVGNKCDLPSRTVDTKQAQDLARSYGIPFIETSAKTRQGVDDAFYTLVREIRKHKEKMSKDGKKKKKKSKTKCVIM
Method: as §1, §2, §3

Sequence of KRAS G12V (P01116 1-188 isoform P01116-2 G12V): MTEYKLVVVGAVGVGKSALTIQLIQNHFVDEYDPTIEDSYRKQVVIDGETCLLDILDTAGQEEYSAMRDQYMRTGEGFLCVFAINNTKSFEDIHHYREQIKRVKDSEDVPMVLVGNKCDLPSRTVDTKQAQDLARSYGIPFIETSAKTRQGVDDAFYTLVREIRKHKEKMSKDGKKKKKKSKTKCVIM

Compound | IC50 (KRAS G12V) | IC50 (KRAS G12D)
CN(C)C(=O)c1ccc(-c2nc3c(F)c(-c4cccc(Cl)c4Cl)c(CCC#N)cc3c3c2cc([C@H]2[C@@H]4CC[C@@H](C4)N2C(=O)C2CC2)n3[C@H]2[C@H]3CN[C@@H]2C3)cn1 [Example 12, 5-(1-((1R,4R,5S)-2-azabicyclo[2.1.1]hexan-5-yl)-8-(2-cyanoethyl)-2-((1S,3R,4R)-2-(cyclopropanecarbonyl)-2-azabicyclo[2.2.1]heptan-3-yl)-7-(2,3-dichlorophenyl)-6-fluoro-1H-pyrrolo[3,2-c]quinolin-4-yl)-N,N-dimethylpicolinamide] | ≤ 100 nM | ≤ 100 nM
CNC(=O)c1ccc(-c2nc3c(F)c(-c4cccc(Cl)c4Cl)c(CCC#N)cc3c3c2cc([C@H]2[C@@H]4CC[C@@H](C4)N2C(=O)C2CC2)n3[C@H]2[C@H]3CN[C@@H]2C3)cc1F [Example 14, 4-(1-((1R,4R,5S)-2-azabicyclo[2.1.1]hexan-5-yl)-8-(2-cyanoethyl)-2-((1S,3R,4R)-2-(cyclopropanecarbonyl)-2-azabicyclo[2.2.1]heptan-3-yl)-7-(2,3-dichlorophenyl)-6-fluoro-1H-pyrrolo[3,2-c]quinolin-4-yl)-2-fluoro-N-methylbenzamide] | ≤ 100 nM | ≤ 100 nM
C[C@@H](O)c1nc2c(F)c(-c3cccc(Cl)c3Cl)c(CCC#N)cc2c2c1cc([C@H]1[C@H]3C[C@H](C[C@@H]3F)N1C(=O)C1(F)CC1)n2[C@H]1[C@H]2CN[C@@H]1C2 (atropisomer, axis not shown) [Example 32, 3-((R)-1-((1R,4R,5S)-2-azabicyclo[2.1.1]hexan-5-yl)-7-(2,3-dichlorophenyl)-6-fluoro-2-((1R,3R,4R,5S)-5-fluoro-2-(1-fluorocyclopropane-1-carbonyl)-2-azabicyclo[2.2.1]heptan-3-yl)-4-((R)-1-hydroxyethyl)-1H-pyrrolo[3,2-c]quinolin-8-yl)propanenitrile] | ≤ 100 nM | ≤ 100 nM
Cc1nc2c(F)c(-c3cccc(Cl)c3Cl)c(CCC#N)cc2c2c1cc([C@H]1[C@H]3C[C@H](C[C@@H]3Oc3ccccn3)N1C(=O)C1CC1)n2C1[C@H]2CN[C@@H]1C2 (stereo partly drawn) [Example 28, 3-(1-((1R,4R)-2-azabicyclo[2.1.1]hexan-5-yl)-2-((1R,3R,4R,5S)-2-(cyclopropanecarbonyl)-5-(pyridin-2-yloxy)-2-azabicyclo[2.2.1]heptan-3-yl)-7-(2,3-dichlorophenyl)-6-fluoro-4-methyl-1H-pyrrolo[3,2-c]quinolin-8-yl)propanenitrile] | ≤ 100 nM | ≤ 100 nM
Cc1nc2c(F)c(-c3cccc(Cl)c3Cl)c(CCC#N)cc2c2c1cc([C@H]1[C@H]3C[C@H](C[C@@H]3O)N1C(=O)C1CC1)n2C1[C@H]2CN[C@@H]1C2 (stereo partly drawn) [Example 16, 3-(1-((1R,4R)-2-azabicyclo[2.1.1]hexan-5-yl)-2-((1R,3R,4R,5S)-2-(cyclopropanecarbonyl)-5-hydroxy-2-azabicyclo[2.2.1]heptan-3-yl)-7-(2,3-dichlorophenyl)-6-fluoro-4-methyl-1H-pyrrolo[3,2-c]quinolin-8-yl)propanenitrile] | ≤ 100 nM | ≤ 100 nM
Cc1nc2c(F)c(-c3cccc(Cl)c3Cl)c(CCC#N)cc2c2c1cc([C@H]1[C@H]3C[C@H](C[C@@H]3OCc3ccccc3)N1C(=O)C1CC1)n2C1[C@H]2CN[C@@H]1C2 (stereo partly drawn) [Example 29, 3-(2-((1R,3R,4R,5S)-5-(benzyloxy)-2-(cyclopropanecarbonyl)-2-azabicyclo[2.2.1]heptan-3-yl)-1-((1R,4R)-2-azabicyclo[2.1.1]hexan-5-yl)-7-(2,3-dichlorophenyl)-6-fluoro-4-methyl-1H-pyrrolo[3,2-c]quinolin-8-yl)propanenitrile] | ≤ 100 nM | ≤ 100 nM

Results, then the compound that gave them:

IC50 (KRAS G12V) | IC50 (KRAS G12D) | Compound
≤ 100 nM | ≤ 100 nM | CO[C@H]1C[C@H]2C[C@@H]1[C@H](c1cc3c(C)nc4c(F)c(-c5cccc(Cl)c5Cl)c(CCC#N)cc4c3n1[C@H]1[C@H]3CN[C@@H]1C3)N2C(=O)C1CC1 [Example 15, 3-(1-((1R,4R,5S)-2-azabicyclo[2.1.1]hexan-5-yl)-2-((1R,3R,4R,5S)-2-(cyclopropanecarbonyl)-5-methoxy-2-azabicyclo[2.2.1]heptan-3-yl)-7-(2,3-dichlorophenyl)-6-fluoro-4-methyl-1H-pyrrolo[3,2-c]quinolin-8-yl)propanenitrile]
≤ 100 nM | ≤ 100 nM | COC(=O)N1[C@@H]2C[C@@H]([C@@H](OC(F)(F)F)C2)[C@@H]1c1cc2c(C)nc3c(F)c(-c4cccc(Cl)c4Cl)c(CCC#N)cc3c2n1[C@H]1[C@H]2CN[C@@H]1C2 (atropisomer, axis not shown; (Ra)) [Example 40, Methyl (1R,3R,4R,5S)-3-((Ra)-1-((1R,4R,5S)-2-azabicyclo[2.1.1]hexan-5-yl)-8-(2-cyanoethyl)-7-(2,3-dichlorophenyl)-6-fluoro-4-methyl-1H-pyrrolo[3,2-c]quinolin-2-yl)-5-(trifluoromethoxy)-2-azabicyclo[2.2.1]heptane-2-carboxylate]
≤ 100 nM | ≤ 100 nM | Cc1nc2c(F)c(-c3cccc(Cl)c3Cl)c(CCC#N)cc2c2c1cc([C@H]1[C@H]3C[C@H](C[C@@H]3OC(F)(F)F)N1C(=O)C1(F)CC1)n2[C@H]1[C@H]2CN[C@@H]1C2 (atropisomer, axis not shown; (Ra)) [Example 42, 3-((Ra)-1-((1R,4R,5S)-2-azabicyclo[2.1.1]hexan-5-yl)-7-(2,3-dichlorophenyl)-6-fluoro-2-((1R,3R,4R,5S)-2-(1-fluorocyclopropane-1-carbonyl)-5-(trifluoromethoxy)-2-azabicyclo[2.2.1]heptan-3-yl)-4-methyl-1H-pyrrolo[3,2-c]quinolin-8-yl)propanenitrile]
≤ 100 nM | ≤ 100 nM | COC(=O)N1[C@@H]2C[C@@H]([C@@H](C(F)F)C2)[C@@H]1c1cc2c(C)nc3c(F)c(-c4cccc(Cl)c4Cl)c(CCC#N)cc3c2n1[C@H]1[C@H]2CN[C@@H]1C2 (atropisomer, axis not shown; (Ra)) [Example 43, Methyl (1R,3R,4S,5S)-3-((Ra)-1-((1R,4R,5S)-2-azabicyclo[2.1.1]hexan-5-yl)-8-(2-cyanoethyl)-7-(2,3-dichlorophenyl)-6-fluoro-4-methyl-1H-pyrrolo[3,2-c]quinolin-2-yl)-5-(difluoromethyl)-2-azabicyclo[2.2.1]heptane-2-carboxylate]
100 to 1000 nM | 100 to 1000 nM | Cc1nc2c(F)c(-c3cccc(Cl)c3Cl)c(CCC#N)cc2c2c1cc([C@H]1[C@H]3C[C@H](C[C@H]3O)N1C(=O)C1CC1)n2C1[C@H]2CN[C@@H]1C2 (stereo partly drawn) [Example 21, 3-(1-((1R,4R)-2-azabicyclo[2.1.1]hexan-5-yl)-2-((1R,3R,4R,5R)-2-(cyclopropanecarbonyl)-5-hydroxy-2-azabicyclo[2.2.1]heptan-3-yl)-7-(2,3-dichlorophenyl)-6-fluoro-4-methyl-1H-pyrrolo[3,2-c]quinolin-8-yl)propanenitrile]

Reference: US20240368156A1, “2-AZABICYCLO[2.2.1]HEPTANE KRAS INHIBITORS” (INCYTE CORPORATION, priority 2023, published 2024)
